Test results: ChEMBL document CHEMBL1201862, “PubChem BioAssay data set” (2004)
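Five concentrations, 48 hours, 96-well plates. GI50: concentration for 50% inhibition of growth.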 The source made the active and inactive calls. Rule as the data show it: active = GI50 up to about 1.1 µM and inactive = higher.

How the values were obtained:
Assay in all cases: NCI anticancer screen, dose series, 48 h
SR = tested on: SR
DMS-273 = tested on: DMS-273
M19-MEL = tested on: M19-MEL
ACHN = tested on: ACHN
TK-10 = tested on: TK-10
DLD-1 = tested on: DLD-1
KM-20L2 = tested on: KM-20L2
RXF 393 = tested on: RXF 393
M14 = tested on: M14
LOX IMVI = tested on: LOX IMVI
HOP-92 = tested on: HOP-92
NCI/ADR-RES = tested on: NCI/ADR-RES
MCF7 = tested on: MCF7
786-0 = tested on: 786-0
T47D = tested on: T47D
Hs-578T = tested on: Hs-578T
BT-549 = tested on: BT-549
MDA-MB-231 = tested on: MDA-MB-231
PC-3 = tested on: PC-3
MDA-MB-435 = tested on: MDA-MB-435

Structure (SMILES)	GI50 (SR)	GI50 (DMS-273)	GI50 (M19-MEL)	GI50 (ACHN)	GI50 (TK-10)	GI50 (DLD-1)	GI50 (KM-20L2)	GI50 (RXF 393)	GI50 (M14)	GI50 (LOX IMVI)	GI50 (HOP-92)	GI50 (NCI/ADR-RES)	GI50 (MCF7)	GI50 (786-0)	GI50 (T47D)	GI50 (Hs-578T)	GI50 (BT-549)	GI50 (MDA-MB-231)	GI50 (PC-3)	GI50 (MDA-MB-435)
CCOC(=O)[C@H]1Nc2c(cccc2[N+](=O)[O-])C2c3ccccc3CC21 (stereo partly specified)	59.8 µM (inactive)	> 100 µM (inactive)	> 100 µM (inactive)	28.4 µM (inactive)	> 100 µM (inactive)	> 100 µM (inactive)	> 100 µM (inactive)	3.15 µM (inactive)	> 100 µM (inactive)	> 100 µM (inactive)	–	–	–	–	–	–	–	–	–	–
Nc1nc(Cl)cc(NCCCCCCCCCCCCNc2cc(Cl)nc(N)n2)n1	1.99 µM (inactive)	7.57 µM (inactive)	11.8 µM (inactive)	–	23.6 µM (inactive)	4.61 µM (inactive)	49.1 µM (inactive)	9.75 µM (inactive)	38 µM (inactive)	0.0869 µM (active)	2.87 µM (inactive)	–	–	–	–	–	–	–	–	–
CCOC(=O)c1ccc(N[C@@H]2c3cc4c(cc3C(c3cc(OC)c(O)c(OC)c3)[C@H]3C(=O)OCC32)OCO4)cc1O (stereo partly specified)	–	0.299 µM (active)	0.893 µM (active)	–	–	1.44 µM (inactive)	2.2 µM (inactive)	1.88 µM (inactive)	–	0.185 µM (active)	1.19 µM (inactive)	4.43 µM (inactive)	0.723 µM (active)	–	–	–	–	–	–	–
COC1=CC(=O)c2ccccc2C1(C)C1=NC(C)(C)CO1 (stereo unspecified)	> 100 µM (inactive)	> 100 µM (inactive)	> 100 µM (inactive)	> 100 µM (inactive)	> 100 µM (inactive)	> 100 µM (inactive)	> 100 µM (inactive)	> 100 µM (inactive)	> 100 µM (inactive)	–	> 100 µM (inactive)	–	–	> 100 µM (inactive)	–	–	–	–	–	–
O=C(CCC(=O)Nc1ccccc1C(F)(F)F)N/N=C1\C(=N\NC(=O)CCC(=O)Nc2ccccc2C(F)(F)F)C(c2ccc3c(c2)OCO3)Oc2ccccc21 (stereo unspecified)	3.59 µM (inactive)	5.58 µM (inactive)	18.4 µM (inactive)	6.46 µM (inactive)	> 64.7 µM (inactive)	5.04 µM (inactive)	97.1 µM (inactive)	11.8 µM (inactive)	> 100 µM (inactive)	6.28 µM (inactive)	17.9 µM (inactive)	–	–	8.63 µM (inactive)	–	–	–	–	–	–
Nc1ccc2[nH]c3c(-c4ccccc4)nccc3c2c1	–	53.3 µM (inactive)	64.6 µM (inactive)	–	–	64.7 µM (inactive)	48.3 µM (inactive)	38.2 µM (inactive)	–	28.9 µM (inactive)	39.1 µM (inactive)	24 µM (inactive)	> 45.1 µM (inactive)	–	–	–	–	–	–	–
Nc1nc(N)c2c(Cl)c(CNc3ccc(Cl)c(Cl)c3)ccc2n1	< 0.0371 µM (active)	< 0.0259 µM (active)	0.0238 µM (active)	< 0.01 µM (active)	0.256 µM (active)	< 0.01 µM (active)	0.225 µM (active)	0.337 µM (active)	< 0.01 µM (active)	< 0.01 µM (active)	0.445 µM (active)	< 0.01 µM (active)	–	< 0.01 µM (active)	6.85 µM (inactive)	1.6 µM (inactive)	4.49 µM (inactive)	1.52 µM (inactive)	< 0.01 µM (active)	< 0.01 µM (active)
CC1C(O)C2(Oc3cc4c(c5c3[C@@H](CC5O)[C@H]2C)CCC2Cc3nc5c(nc3C[C@@]42C)CC2CCC3C4=C[C@H]6O[C@@]7(O[C@@](C)(CO)C[C@@H]7O)C(C)[C@@]6(O)[C@]4(C)[C@@H](O)CC3[C@]2(C)C5)OC1(C)C (stereo partly specified)	–	0.0304 µM (active)	0.863 µM (active)	–	–	1.1 µM (active)	0.0975 µM (active)	0.0269 µM (active)	–	0.115 µM (active)	0.204 µM (active)	2.9 µM (inactive)	0.117 µM (active)	–	–	–	–	–	–	–
CCCCC(C)C1CCC2(C)C=CC(=O)C(C)=C2C1O (stereo unspecified)	–	> 100 µM (inactive)	> 100 µM (inactive)	–	–	> 100 µM (inactive)	> 100 µM (inactive)	> 100 µM (inactive)	–	> 100 µM (inactive)	> 100 µM (inactive)	> 100 µM (inactive)	> 100 µM (inactive)	–	–	–	–	–	–	–
CCCCCC1CC(C(C)=O)CN1c1ccc(F)cc1 (stereo unspecified)	> 10 µM (inactive)	35.6 µM (inactive)	39.7 µM (inactive)	26.9 µM (inactive)	98.6 µM (inactive)	32 µM (inactive)	35.3 µM (inactive)	41 µM (inactive)	35 µM (inactive)	28 µM (inactive)	27.9 µM (inactive)	–	–	–	–	–	–	–	–	–
Nc1ncnc2c1ncn2[C@@H]1O[C@H](COP(=O)(O)O)[C@@H](O)[C@@H]1O	–	> 50 µM (inactive)	> 50 µM (inactive)	–	–	> 31.6 µM (inactive)	> 50 µM (inactive)	> 50 µM (inactive)	–	> 50 µM (inactive)	> 31.3 µM (inactive)	> 24.5 µM (inactive)	> 50 µM (inactive)	–	–	–	–	–	–	–
c1ccc2c(c1)cc1n2CC2CN=NC12 (stereo unspecified)	> 100 µM (inactive)	> 100 µM (inactive)	> 100 µM (inactive)	> 100 µM (inactive)	–	> 100 µM (inactive)	> 100 µM (inactive)	> 100 µM (inactive)	> 100 µM (inactive)	> 100 µM (inactive)	–	–	–	> 100 µM (inactive)	–	–	–	–	–	–
O=C(O)c1cc2c3c(c1)[C@H]1C=CC[C@H]1CN3CC1CC=CC21 (stereo partly specified)	> 100 µM (inactive)	> 100 µM (inactive)	> 100 µM (inactive)	> 100 µM (inactive)	> 100 µM (inactive)	> 100 µM (inactive)	> 100 µM (inactive)	> 100 µM (inactive)	> 100 µM (inactive)	> 100 µM (inactive)	> 100 µM (inactive)	–	–	> 100 µM (inactive)	–	–	–	–	–	–
CC(=O)OCC1OC(n2cc(F)c(=O)[nH]c2=O)C(NC(=O)OCc2ccccc2)C(OC(C)=O)C1OC(C)=O (stereo unspecified)	–	> 100 µM (inactive)	> 100 µM (inactive)	–	–	> 100 µM (inactive)	> 100 µM (inactive)	> 100 µM (inactive)	–	> 100 µM (inactive)	> 100 µM (inactive)	> 100 µM (inactive)	> 100 µM (inactive)	–	–	–	–	–	–	–
O=NN(CCCl)C(=O)NC1CCSc2ccccc21 (stereo unspecified)	–	> 100 µM (inactive)	> 100 µM (inactive)	–	–	> 100 µM (inactive)	> 100 µM (inactive)	> 100 µM (inactive)	–	82 µM (inactive)	> 100 µM (inactive)	> 100 µM (inactive)	> 100 µM (inactive)	–	–	–	–	–	–	–
C=C1C(=O)C[C@@]23CCC[C@@]12CC(O)C3 (stereo partly specified)	–	17.3 µM (inactive)	24.8 µM (inactive)	–	–	18.6 µM (inactive)	21.8 µM (inactive)	13.7 µM (inactive)	–	14.6 µM (inactive)	19.3 µM (inactive)	13.4 µM (inactive)	16.7 µM (inactive)	–	–	–	–	–	–	–
[N-]=[N+]=CC(=O)OCC(N)C(=O)O (stereo unspecified)	–	0.245 µM (active)	1.41 µM (inactive)	–	–	0.344 µM (active)	0.157 µM (active)	15.7 µM (inactive)	–	0.205 µM (active)	82 µM (inactive)	2.95 µM (inactive)	0.217 µM (active)	–	–	–	–	–	–	–
